# System: HSSY-II complex spheroid growth, percent test/control
# Assay: Anticancer human tumor HSSY-II cell line growth inhibition [Asc];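 further: spheroids exposed to drug for 7 days before reading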
# Conditions: for IC50: curve of first compound; for viability, T/C: stronger effect = lower value
# Outline: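 Spheroid model: tumor line + HUVEC + hMSC. Single agents and combinations; top conc. at/near clinical Cmax (10 microM if undetermined), half-log dilutions. DMSO stocks at 800-fold test concentration.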
compound,measurement,setting,value
CCN1CCN(Cc2ccc(Nc3ncc(F)c(-c4cc(F)c5nc(C)n(C(C)C)c5c4)n3)nc2)CC1 + CNC(C)C(=O)NC1CN(S(=O)(=O)c2cccc(S(=O)(=O)N3CCC4CCC(C(=O)NC(c5ccccc5)c5ccccc5)N4C(=O)C(NC(=O)C(C)NC)C3)c2)CCC2CCC(C(=O)NC(c3ccccc3)c3ccccc3)N2C1=O,IC50,second compound 0.01 µM,120 nM
same,IC50,second compound 0.0316 µM,150 nM
same,IC50,second compound 0.1 µM,111 nM
same,IC50,second compound 0.316 µM,87.5 nM
same,IC50,second compound 1 µM,96 nM
same,"viability, T/C","second compound 0.01 µM, first compound 0.00316 µM",95.3%
same,"viability, T/C","second compound 0.01 µM, first compound 0.01 µM",92.5%
same,"viability, T/C","second compound 0.01 µM, first compound 0.0316 µM",60.6%
same,"viability, T/C","second compound 0.01 µM, first compound 0.1 µM",54.2%
same,"viability, T/C","second compound 0.01 µM, first compound 0.316 µM",39.9%
same,"viability, T/C","second compound 0.01 µM, first compound 1 µM",23.2%
same,"viability, T/C","second compound 0.0316 µM, first compound 0.00316 µM",78.1%
same,"viability, T/C","second compound 0.0316 µM, first compound 0.01 µM",83.9%
same,"viability, T/C","second compound 0.0316 µM, first compound 0.0316 µM",66.7%
same,"viability, T/C","second compound 0.0316 µM, first compound 0.1 µM",53.2%
same,"viability, T/C","second compound 0.0316 µM, first compound 0.316 µM",42.3%
same,"viability, T/C","second compound 0.0316 µM, first compound 1 µM",23.4%
same,"viability, T/C","second compound 0.1 µM, first compound 0.00316 µM",68.5%
same,"viability, T/C","second compound 0.1 µM, first compound 0.01 µM",78.3%
same,"viability, T/C","second compound 0.1 µM, first compound 0.0316 µM",59.1%
same,"viability, T/C","second compound 0.1 µM, first compound 0.1 µM",51.5%
same,"viability, T/C","second compound 0.1 µM, first compound 0.316 µM",37.4%
same,"viability, T/C","second compound 0.1 µM, first compound 1 µM",24.1%
same,"viability, T/C","second compound 0.316 µM, first compound 0.00316 µM",86.5%
same,"viability, T/C","second compound 0.316 µM, first compound 0.01 µM",89%
same,"viability, T/C","second compound 0.316 µM, first compound 0.0316 µM",68.9%
same,"viability, T/C","second compound 0.316 µM, first compound 0.1 µM",45.2%
same,"viability, T/C","second compound 0.316 µM, first compound 0.316 µM",37.6%
same,"viability, T/C","second compound 0.316 µM, first compound 1 µM",23.9%
same,"viability, T/C","second compound 1 µM, first compound 0.00316 µM",88%
same,"viability, T/C","second compound 1 µM, first compound 0.01 µM",76.8%
same,"viability, T/C","second compound 1 µM, first compound 0.0316 µM",66.9%
same,"viability, T/C","second compound 1 µM, first compound 0.1 µM",46.7%
same,"viability, T/C","second compound 1 µM, first compound 0.316 µM",35.4%
same,"viability, T/C","second compound 1 µM, first compound 1 µM",18.8%

# — PubChem BioAssay AID1963444 (Molecular Pharmacology Branch, DTP, NCI, 2024)
